Results on 18 compounds are retold here after US11814391B2, “Macrocyclic compounds for the treatment of medical disorders” (Achillion Pharmaceuticals, Inc., priority 2018, dated 2023).

Each structure is given as a SMILES string.

The target of the first test is Human Factor D (Homo sapiens (Human), UniProt P00746). The test is described as follows: Human Factor D assay. The class given is biochemical.
Sequence of Human Factor D (P00746 26-253): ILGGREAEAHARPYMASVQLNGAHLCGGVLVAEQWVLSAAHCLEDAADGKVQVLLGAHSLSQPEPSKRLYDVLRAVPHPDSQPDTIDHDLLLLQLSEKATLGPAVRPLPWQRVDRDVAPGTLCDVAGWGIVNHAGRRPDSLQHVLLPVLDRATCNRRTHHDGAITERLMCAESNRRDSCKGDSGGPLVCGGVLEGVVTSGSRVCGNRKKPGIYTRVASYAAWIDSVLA
Conditions: not given
The procedure:
The assay of Example 3 was used to determine the IC50's of the compounds. Other standard factor D inhibition assays are also available.
Human Factor D (purified from human serum, Complement Technology, Inc.) at 80 nM final concentration is incubated with test compound at various concentrations for 5 min at room temperature in 50 mM Tris, 1M NaCl, pH 7.5. A synthetic substrate Z-L-Lys-SBzI and DTNB (Ellman's reagent) are added to final concentrations of 100 μM each. Absorbance at 405 nm (A405) is recorded at 30 second intervals for 30 min using a microplate spectrophotometer. IC50 values are calculated by nonlinear regression of complement Factor D reaction rates as a function of test compound concentration.
Take `CC(=O)c1nn2c3c(cc(-c4cnc(C)nc4)cc13)CCCCCCCCCCN([C@@H](C)C(=O)Nc1nc(Br)ccc1C)C(=O)C2` [Compound 35, (S)-2-(2-acetyl-4-(2-methylpyrimidin-5-yl)-17-oxo-8,9,10,11,12,13,14,15,17,18-decahydro-6H-[1,4]diazacyclohexadecino[15,16,1-hi]indazol-16(7H)-yl)-N-(6-bromo-3-methylpyridin-2-yl)propanamide]: the IC50 (in general, the concentration that inhibits the measured activity by half) lay within 1000 to 10000 nM.

Still in this test, the particulars now being: Human Factor D 80 nM, substrate Z-L-Lys-SBzl, A405; read-out: IC50 (Stars).
As for `CC(=O)c1nn2c3c(cc(OC(C)C)cc13)CCCCCCC(=O)NC[C@@]13C[C@@H](C(=O)Nc4nc(C(F)(F)F)ccc4C)N(C(=O)C2)[C@@H]1C3` [Compound 19, (4^1R,4^3S,4^5R)-1^3-acetyl-1^5-isopropoxy-N-(3-methyl-6-(trifluoromethyl)pyridin-2-yl)-3,7-dioxo-1^1H-4^2,6-diaza-1(1,7)-indazola-4(2,5)-bicyclo[3.1.0]hexanacyclotridecaphane-4^3-carboxamide], the concentration for half-maximal inhibition (IC50) was below 1000 nM. On the same count and under the same terms, for `CC(=O)c1nn2c3c(cc(CCC(C)C)cc13)CCCCCCC(=O)NC[C@@]13C[C@@H](C(=O)Nc4nc(C(F)(F)F)ccc4C)N(C(=O)C2)[C@@H]1C3` [Compound 20, (4^1R,4^3S,4^5R)-1^3-acetyl-1^5-isopentyl-N-(3-methyl-6-(trifluoromethyl)pyridin-2-yl)-3,7-dioxo-1^1H-4^2,6-diaza-1(1,7)-indazola-4(2,5)-bicyclo[3.1.0]hexanacyclotridecaphane-4^3-carboxamide] the value was below 1000 nM. `CC(=O)c1nn2c3c(cc(C(C)C)cc13)CCCCCCC(=O)NC[C@@]13C[C@@H](C(=O)Nc4nc(C(F)(F)F)ccc4C)N(C(=O)C2)[C@@H]1C3` [Compound 21, (4^1R,4^3S,4^5R)-1^3-Acetyl-1^5-isopropyl-N-(3-methyl-6-(trifluoromethyl)pyridin-2-yl)-3,7-dioxo-1^1H-4^2,6-diaza-1(1,7)-indazola-4(2,5)-bicyclo[3.1.0]hexanacyclotridecaphane-4^3-carboxamide]: the IC50 was below 1000 nM. The same measure, in the same setting: to `CC(=O)c1nn2c3c(cc(-c4cnc5cc(C)nn5c4)cc13)CCCCC[C@@H](C)C(=O)NC[C@@]13C[C@@H](C(=O)Nc4nc(C(F)(F)F)ccc4C)N(C(=O)C2)[C@@H]1C3` [Compound 22, (4^1R,4^3S,4^5R,8R)-1^3-acetyl-8-methyl-N-(3-methyl-6-(trifluoromethyl)pyridin-2-yl)-15-(2-methylpyrazolo[1,5-a]pyrimidin-6-yl)-3,7-dioxo-1^1H-4^2,6-diaza-1(1,7)-indazola-4(2,5)-bicyclo[3.1.0]hexanacyclotridecaphane-4^3-carboxamide] belongs below 1000 nM; to `CC(=O)c1nn2c3c(cc(-c4cnc(C)cn4)cc13)CCCCC[C@@H](C)C(=O)NC[C@@]13C[C@@H](C(=O)Nc4nc(C(F)(F)F)ccc4C)N(C(=O)C2)[C@@H]1C3` [Compound 23, (4^1R,4^3S,4^5R,8R)-1^3-acetyl-8-methyl-N-(3-methyl-6-(trifluoromethyl)pyridin-2-yl)-15-(5-methylpyrazin-2-yl)-3,7-dioxo-1^1H-4^2,6-diaza-1(1,7)-indazola-4(2,5)-bicyclo[3.1.0]hexanacyclotridecaphane-4^3-carboxamide], below 1000 nM. Same read-out and setting: to `CC(=O)c1nn2c3c(cc(NCC(C)C)cc13)CCCCCCC(=O)NC[C@@]13C[C@@H](C(=O)Nc4nc(C(F)(F)F)ccc4C)N(C(=O)C2)[C@@H]1C3` [Compound 24, (4^1R,4^3S,4^5R)-1^3-acetyl-15-(isobutylamino)-N-(3-methyl-6-(trifluoromethyl)pyridin-2-yl)-3,7-dioxo-1^1H-4^2,6-diaza-1(1,7)-indazola-4(2,5)-bicyclo[3.1.0]hexanacyclotridecaphane-4^3-carboxamide] belongs below 1000 nM.

Regarding `CC(=O)c1nn2c3c(cc(NC(C)C)cc13)CCCCCCC(=O)NC[C@@]13C[C@@H](C(=O)Nc4nc(C(F)(F)F)ccc4C)N(C(=O)C2)[C@@H]1C3` [Compound 25, (4^1R,4^3S,4^5R)-1^3-acetyl-1^5-(isopropylamino)-N-(3-methyl-6-(trifluoromethyl)pyridin-2-yl)-3,7-dioxo-1^1H-4^2,6-diaza-1(1,7)-indazola-4(2,5)-bicyclo[3.1.0]hexanacyclotridecaphane-4^3-carboxamide], the IC50 is below 1000 nM. For the compound `CC(=O)c1nn2c3c(cc(-c4cnc(C)nc4)cc13)CCCCC(C)(C)CC(=O)NC[C@@]13C[C@@H](C(=O)Nc4nc(C(F)(F)F)ccc4C)N(C(=O)C2)[C@@H]1C3` [Compound 26, (4^1R,4^3S,4^5R)-1^3-acetyl-9,9-dimethyl-N-(3-methyl-6-(trifluoromethyl)pyridin-2-yl)-15-(2-methylpyrimidin-5-yl)-3,7-dioxo-1^1H-4^2,6-diaza-1(1,7)-indazola-4(2,5)-bicyclo[3.1.0]hexanacyclotridecaphane-4^3-carboxamide], the IC50 is below 1000 nM.

As to `CNc1cc2c3c(c1)c(C(C)=O)nn3CC(=O)N1[C@H](C(=O)Nc3nc(C(F)(F)F)ccc3C)C[C@@]3(CNC(=O)CCCCCC2)C[C@@H]13` [Compound 27, (4^1R,4^3S,4^5R)-1^3-acetyl-N-(3-methyl-6-(trifluoromethyl)pyridin-2-yl)-1^5-(methylamino)-3,7-dioxo-1^1H-4^2,6-diaza-1(1,7)-indazola-4(2,5)-bicyclo[3.1.0]hexanacyclotridecaphane-4^3-carboxamide], the IC50 was below 1000 nM. Same read-out and setting: for `CC(=O)c1nn2c3c(cc(CC(C)C)cc13)CCCCCCC(=O)NC[C@@]13C[C@@H](C(=O)Nc4nc(C(F)(F)F)ccc4C)N(C(=O)C2)[C@@H]1C3` [Compound 28, (4^1R,4^3S,4^5R)-1^3-acetyl-1^5-isobutyl-N-(3-methyl-6-(trifluoromethyl)pyridin-2-yl)-3,7-dioxo-1^1H-4^2,6-diaza-1(1,7)-indazola-4(2,5)-bicyclo[3.1.0]hexanacyclotridecaphane-4^3-carboxamide] the value was below 1000 nM; for `CC(=O)c1nn2c3c(cc(-c4cnc(C)nc4)cc13)CCCCCCC(=O)NC[C@@]13C[C@@H](C(=O)NC(C)[C@H]4CC4(Cl)Cl)N(C(=O)C2)[C@@H]1C3` (stereo partly drawn) [Compound 29, (4^1R,4^3S,4^5R)-1^3-acetyl-N-((R)-1-((R)-2,2-dichlorocyclopropyl)ethyl)-1^5-(2-methylpyrimidin-5-yl)-3,7-dioxo-1^1H-4^2,6-diaza-1(1,7)-indazola-4(2,5)-bicyclo[3.1.0]hexanacyclotridecaphane-4^3-carboxamide], below 1000 nM; for `CC(=O)c1nn2c3c(cc(-c4cnc(C)nc4)cc13)CCCCCCC(=O)NC[C@@]13C[C@@H](C(=O)N[C@@H](C)[C@H]4CC4(Cl)Cl)N(C(=O)C2)[C@@H]1C3` [Compound 30, (4^1R,4^3S,4^5R)-1^3-acetyl-N-((S)-1-((R)-2,2-dichlorocyclopropyl)ethyl)-1^5-(2-methylpyrimidin-5-yl)-3,7-dioxo-1^1H-4^2,6-diaza-1(1,7)-indazola-4(2,5)-bicyclo[3.1.0]hexanacyclotridecaphane-4^3-carboxamide], below 1000 nM. Still for that read-out and setting: to `CC(=O)c1nn2c3c(cc(-c4cnc(C)nc4)cc13)CCCC[C@H](C)CC(=O)NC[C@@]13C[C@@H](C(=O)Nc4nc(C(F)(F)F)ccc4C)N(C(=O)C2)[C@@H]1C3` [Compound 31, (4^1R,4^3S,4^5R,9S)-1^3-acetyl-9-methyl-N-(3-methyl-6-(trifluoromethyl)pyridin-2-yl)-1^5-(2-methylpyrimidin-5-yl)-3,7-dioxo-1^1H-4^2,6-diaza-1(1,7)-indazola-4(2,5)-bicyclo[3.1.0]hexanacyclotridecaphane-4^3-carboxamide] belongs below 1000 nM; to `CC(=O)c1nn2c3c(cc(-c4cnc(C)nc4)cc13)CCCCCCCNC[C@@]13C[C@@H](C(=O)Nc4nc(C(F)(F)F)ccc4C)N(C(=O)C2)[C@@H]1C3` [Compound 32, (4^1R,4^3S,4^5R)-1^3-acetyl-N-(3-methyl-6-(trifluoromethyl)pyridin-2-yl)-1^5-(2-methylpyrimidin-5-yl)-3-oxo-1^1H-4^2,6-diaza-1(1,7)-indazola-4(2,5)-bicyclo[3.1.0]hexanacyclotridecaphane-4^3-carboxamide], below 1000 nM. On the same count and under the same terms, for `CC(=O)c1nn2c3c(cc(-c4cnc(C)nc4)cc13)CNC(=O)CCCCOC[C@@]13C[C@@H](C(=O)Nc4nc(C(F)(F)F)ccc4C)N(C(=O)C2)[C@@H]1C3` [Compound 33, (4^1R,4^3S,4^5S)-1^3-acetyl-N-(3-methyl-6-(trifluoromethyl)pyridin-2-yl)-1^5-(2-methylpyrimidin-5-yl)-3,11-dioxo-1^1H-6-oxa-4^2,12-diaza-1(1,7)-indazola-4(2,5)-bicyclo[3.1.0]hexanacyclotridecaphane-4^3-carboxamide] the value was below 1000 nM; for `CC(=O)c1nn2c3c(cc(-c4cnc(C)nc4)cc13)CCCC[C@@H](C)CC(=O)NC[C@@]13C[C@@H](C(=O)Nc4nc(C(F)(F)F)ccc4C)N(C(=O)C2)[C@@H]1C3` [Compound 34, (4^1R,4^3S,4^5R,9R)-1^3-acetyl-9-methyl-N-(3-methyl-6-(trifluoromethyl)pyridin-2-yl)-1^5-(2-methylpyrimidin-5-yl)-3,7-dioxo-1^1H-4^2,6-diaza-1(1,7)-indazola-4(2,5)-bicyclo[3.1.0]hexanacyclotridecaphane-4^3-carboxamide], below 1000 nM. For the compound `CC(=O)c1nn2c3c(cc(-c4cnc(C)nc4)cc13)CNCCCCCOC[C@@]13C[C@@H](C(=O)Nc4nc(C(F)(F)F)ccc4C)N(C(=O)C2)[C@@H]1C3` [Compound 36, (4^1R,4^3S,4^5S)-1^3-acetyl-N-(3-methyl-6-(trifluoromethyl)pyridin-2-yl)-1^5-(2-methylpyrimidin-5-yl)-3-oxo-1^1H-6-oxa-4^2,12-diaza-1(1,7)-indazola-4(2,5)-bicyclo[3.1.0]hexanacyclotridecaphane-4^3-carboxamide], the IC50 was below 1000 nM.
